ChEMBL document CHEMBL4414679, “Discovery of 4,6-pyrimidinediamine derivatives as novel dual EGFR/FGFR inhibitors aimed EGFR/FGFR1-positive NSCLC” (Eur J Med Chem, 2020)

Experiments:
[1] = molecular target: T1, Epidermal growth factor receptor (Homo sapiens, UniProt P00533); test: Inhibition of N-terminal GST-tagged human EGFR cytoplasmic domain (669-1210 AA) expressed in baculovirus at 10 uM using FAM-labelled peptide as substrate pre-incubated for 10 mins followed by substrate addition by mobility shift assay relative to control
[2] = molecular target: T1, Epidermal growth factor receptor; test: Inhibition of N-terminal GST-tagged human EGFR (d746-750AA) expressed in baculovirus at 10 uM using FAM-labelled peptide as substrate pre-incubated for 10 mins followed by substrate addition by mobility shift assay relative to control
[3] = test system: Epidermal growth factor receptor (Homo sapiens), P00533 [L858R]; test: Inhibition of recombinant human EGFR L858R mutant expressed in baculovirus at 10 uM using FAM-labelled peptide as substrate pre-incubated for 10 mins followed by substrate addition by mobility shift assay relative to control
[4] = molecular target: Fibroblast growth factor receptor 1 (Homo sapiens, UniProt P11362); test: Inhibition of N-terminal GST-tagged human FGFR1 cytoplasmic domain (398-822 AA) expressed in baculovirus at 10 uM using FAM-labelled peptide as substrate pre-incubated for 10 mins followed by substrate addition by mobility shift assay relative to control
HCC827 = test: Antiproliferative activity against human HCC827 cells assessed as inhibition of cell growth at 10 uM incubated for 48 hrs by MTT assay relative to control; format: functional; settings: HCC827, 48 h
PC-9 = test: Antiproliferative activity against human PC9 cells assessed as inhibition of cell growth at 10 uM incubated for 48 hrs by MTT assay relative to control; format: functional; settings: PC-9, 48 h
NCI-H520 = test: Antiproliferative activity against human NCI-H520 cells assessed as inhibition of cell growth at 10 uM incubated for 48 hrs by MTT assay relative to control; format: functional; settings: NCI-H520, 48 h
NCI-H1581 = test: Antiproliferative activity against human NCI-H1581 cells assessed as inhibition of cell growth at 10 uM incubated for 48 hrs by MTT assay relative to control; format: functional; settings: NCI-H1581, 48 h
NCI-H226 = test: Antiproliferative activity against human NCI-H226 cells assessed as inhibition of cell growth at 10 uM incubated for 48 hrs by MTT assay relative to control; format: functional; settings: NCI-H226, 48 h

Chain of Fibroblast growth factor receptor 1 (P11362 22-822 limits assumed): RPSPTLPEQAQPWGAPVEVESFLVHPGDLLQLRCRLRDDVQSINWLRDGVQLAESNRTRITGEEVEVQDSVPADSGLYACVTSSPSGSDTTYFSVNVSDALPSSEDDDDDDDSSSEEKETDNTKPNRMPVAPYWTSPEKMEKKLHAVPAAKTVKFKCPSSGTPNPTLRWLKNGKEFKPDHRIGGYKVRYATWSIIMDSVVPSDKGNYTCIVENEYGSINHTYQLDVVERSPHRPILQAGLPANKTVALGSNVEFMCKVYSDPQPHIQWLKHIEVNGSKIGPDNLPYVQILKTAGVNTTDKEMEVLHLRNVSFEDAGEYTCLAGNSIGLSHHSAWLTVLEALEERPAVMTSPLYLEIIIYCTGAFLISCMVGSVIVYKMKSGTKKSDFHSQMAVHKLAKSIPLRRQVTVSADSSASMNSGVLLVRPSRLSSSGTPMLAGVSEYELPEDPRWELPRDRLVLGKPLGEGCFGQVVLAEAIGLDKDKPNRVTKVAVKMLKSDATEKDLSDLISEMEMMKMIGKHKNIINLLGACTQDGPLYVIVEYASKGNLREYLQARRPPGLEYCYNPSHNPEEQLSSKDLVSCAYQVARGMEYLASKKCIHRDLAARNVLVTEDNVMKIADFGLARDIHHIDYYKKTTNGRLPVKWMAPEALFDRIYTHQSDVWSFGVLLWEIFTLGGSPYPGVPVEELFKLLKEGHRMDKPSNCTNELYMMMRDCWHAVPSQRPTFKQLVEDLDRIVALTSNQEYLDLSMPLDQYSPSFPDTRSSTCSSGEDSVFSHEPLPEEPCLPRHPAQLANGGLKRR
T1 sequence (P00533 whole entry, the tested form may be a part): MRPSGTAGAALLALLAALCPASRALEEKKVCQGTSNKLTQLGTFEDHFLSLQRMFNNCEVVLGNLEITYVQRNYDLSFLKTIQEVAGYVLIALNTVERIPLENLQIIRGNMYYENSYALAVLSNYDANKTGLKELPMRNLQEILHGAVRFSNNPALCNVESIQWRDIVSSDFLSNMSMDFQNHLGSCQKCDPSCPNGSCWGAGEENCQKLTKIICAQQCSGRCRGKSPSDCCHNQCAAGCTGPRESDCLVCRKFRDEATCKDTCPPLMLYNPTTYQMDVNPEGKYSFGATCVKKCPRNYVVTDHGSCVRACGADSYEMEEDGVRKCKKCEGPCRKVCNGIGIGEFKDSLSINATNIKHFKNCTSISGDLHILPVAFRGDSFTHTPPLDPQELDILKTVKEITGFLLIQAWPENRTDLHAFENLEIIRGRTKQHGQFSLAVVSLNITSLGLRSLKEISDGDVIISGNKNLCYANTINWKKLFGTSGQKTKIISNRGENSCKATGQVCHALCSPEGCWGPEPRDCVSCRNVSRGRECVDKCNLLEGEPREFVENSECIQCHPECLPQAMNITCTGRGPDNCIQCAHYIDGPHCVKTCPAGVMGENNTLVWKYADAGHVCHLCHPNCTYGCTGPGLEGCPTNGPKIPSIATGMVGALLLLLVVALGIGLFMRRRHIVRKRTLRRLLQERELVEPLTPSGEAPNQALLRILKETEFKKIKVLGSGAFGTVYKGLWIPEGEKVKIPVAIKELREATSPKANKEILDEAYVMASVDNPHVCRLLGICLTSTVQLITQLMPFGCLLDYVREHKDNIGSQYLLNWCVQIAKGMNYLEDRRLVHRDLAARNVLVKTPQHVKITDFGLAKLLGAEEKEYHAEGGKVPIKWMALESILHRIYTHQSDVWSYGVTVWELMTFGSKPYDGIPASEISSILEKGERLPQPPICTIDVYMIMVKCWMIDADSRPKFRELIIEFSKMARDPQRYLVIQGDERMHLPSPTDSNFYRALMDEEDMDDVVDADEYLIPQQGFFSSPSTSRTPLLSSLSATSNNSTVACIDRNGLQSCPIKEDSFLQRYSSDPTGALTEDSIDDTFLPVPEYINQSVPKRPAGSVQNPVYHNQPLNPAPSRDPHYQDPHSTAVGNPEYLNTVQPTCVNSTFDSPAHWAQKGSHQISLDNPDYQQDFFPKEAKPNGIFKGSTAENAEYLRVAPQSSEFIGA
Chain of Epidermal growth factor receptor (Homo sapiens), P00533 [L858R] (P00533 whole entry L858R, the tested form may be a part): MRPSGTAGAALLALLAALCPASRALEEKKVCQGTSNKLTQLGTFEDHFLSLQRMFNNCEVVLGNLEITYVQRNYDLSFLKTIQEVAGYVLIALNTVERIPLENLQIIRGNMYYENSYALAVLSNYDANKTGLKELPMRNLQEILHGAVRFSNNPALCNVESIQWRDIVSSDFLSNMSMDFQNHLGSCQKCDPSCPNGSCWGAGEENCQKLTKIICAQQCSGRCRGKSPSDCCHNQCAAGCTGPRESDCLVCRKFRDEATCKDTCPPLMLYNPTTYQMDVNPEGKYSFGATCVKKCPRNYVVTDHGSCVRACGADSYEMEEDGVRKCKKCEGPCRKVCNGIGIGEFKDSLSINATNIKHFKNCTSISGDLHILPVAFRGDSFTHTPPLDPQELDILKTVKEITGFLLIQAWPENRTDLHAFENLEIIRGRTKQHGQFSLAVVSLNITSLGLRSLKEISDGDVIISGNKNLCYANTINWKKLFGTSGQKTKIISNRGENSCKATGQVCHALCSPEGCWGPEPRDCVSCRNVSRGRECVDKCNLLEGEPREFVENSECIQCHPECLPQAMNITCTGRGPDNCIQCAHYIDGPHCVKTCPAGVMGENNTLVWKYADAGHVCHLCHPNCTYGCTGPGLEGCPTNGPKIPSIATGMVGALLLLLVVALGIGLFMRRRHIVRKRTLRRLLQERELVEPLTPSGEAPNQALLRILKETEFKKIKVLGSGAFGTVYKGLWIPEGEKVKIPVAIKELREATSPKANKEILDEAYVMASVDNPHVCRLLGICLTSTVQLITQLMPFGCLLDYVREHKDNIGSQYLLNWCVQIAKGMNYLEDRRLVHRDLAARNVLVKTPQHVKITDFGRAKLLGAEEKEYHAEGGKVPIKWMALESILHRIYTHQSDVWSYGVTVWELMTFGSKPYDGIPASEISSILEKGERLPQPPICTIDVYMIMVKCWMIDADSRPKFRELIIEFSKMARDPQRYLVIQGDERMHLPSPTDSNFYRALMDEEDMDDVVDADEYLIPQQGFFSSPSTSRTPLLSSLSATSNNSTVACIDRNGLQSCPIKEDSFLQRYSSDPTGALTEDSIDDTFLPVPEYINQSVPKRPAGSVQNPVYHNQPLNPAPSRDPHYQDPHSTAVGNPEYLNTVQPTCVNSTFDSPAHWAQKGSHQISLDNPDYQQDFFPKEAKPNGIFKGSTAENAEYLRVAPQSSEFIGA

Row | SMILES | inhibition [1] [%] | inhibition [2] [%] | inhibition [3] [%] | inhibition [4] [%] | inhibition at 10 µM (HCC827) [%] | inhibition at 10 µM (PC-9) [%] | inhibition at 10 µM (NCI-H520) [%] | inhibition at 10 µM (NCI-H1581) [%] | inhibition at 10 µM (NCI-H226) [%]
1 | COc1cc(NC(=O)Nc2cc(Nc3ccc(C)c(F)c3)ncn2)cc(OC)c1 | 31.7 | 51.5 | 64.2 | 0.1 | 72 | 77.5 | 30.6 | 38 | 39.7
2 | O=C(Nc1cccc(Nc2cc(Nc3cccc(C(F)(F)F)c3)ncn2)c1)C1CC1 | – | – | – | – | 94.7 | 90.5 | 30 | 26 | 52.7
3 | COc1cc(NC(=O)Nc2cc(Nc3ccc(Br)cc3OC)ncn2)cc(OC)c1 | 12.4 | 17.9 | 36.9 | -0.7 | 57.7 | 83 | 36 | 20.1 | 25.7
4 | CC(C)(C)c1ccc(Nc2cc(NC(=O)Nc3c(Cl)cccc3Cl)ncn2)cc1 | 48.2 | 63.2 | 71.8 | 30.4 | 42.3 | 41.5 | 22 | 71.3 | 40
5 | CC(C)(C)c1cccc(Nc2cc(NC(=O)Nc3c(Cl)cccc3Cl)ncn2)c1 | 44.7 | 57.4 | 68.4 | 10.7 | 37.3 | 87 | 29.6 | 64.3 | 36.5
6 | COc1cc(NC(=O)Nc2cc(Nc3ccc(OC)c(I)c3)ncn2)cc(OC)c1 | 31.4 | 43.6 | 46 | 10.3 | 61.7 | 47 | 46.5 | 43 | 40.1
7 | O=C(Nc1cc(Nc2ccc(F)c(Cl)c2)ncn1)Nc1c(Cl)cccc1Cl | 94.3 | 96.7 | 97 | 27.6 | 53.7 | 91.1 | 39.5 | 67 | 47.3
8 | COc1cc(NC(=O)Nc2cc(Nc3ccc(C(C)(C)C)cc3)ncn2)cc(OC)c1 | -1.1 | -0.2 | 2.7 | -0.7 | 32.7 | 74.1 | 17.5 | 38.7 | 47.7
9 | COc1cc(NC(=O)Nc2cc(Nc3ccc(F)c(Cl)c3)ncn2)cc(OC)c1 | 46.7 | 52.8 | 69.1 | 1 | 53 | 77.5 | 25.5 | 53 | 36.7
10 | COc1cc(NC(=O)Nc2cc(Nc3cccc(C(C)(C)C)c3)ncn2)cc(OC)c1 | 17.1 | 10.4 | 29.3 | 5.2 | 48.7 | 68 | 13.1 | 35 | 40
11 | COc1cc(NC(=O)Nc2cc(Nc3ccc(C)c(C)c3)ncn2)cc(OC)c1 | 54.1 | 43.4 | 39.5 | 21.3 | 45.7 | 66 | 29.5 | 20.1 | 45.3
12 | COc1cc(NC(=O)Nc2cc(Nc3cc(OC)cc(C(F)(F)F)c3)ncn2)cc(OC)c1 | 18.5 | 27.5 | 48.6 | -1.7 | 57.7 | 88.1 | 36.5 | 50.7 | 56
